# Results from US20230026232A1, “AHR INHIBITORS AND USES THEREOF” (Ikena Oncology, Inc., priority 2019, published 2023).
# Assays:
# [1] = Two stage gastric transfer non-sink dissolution test (0.1N HCl then FaSSIF); format: physicochemical; conditions: 100 RPM
# Description: In vitro drug dissolution performance for both API forms and each SDI was evaluated by the two stage ‘gastric transfer’ non-sink dissolution test (Table 8), which simulates pH and bile salt concentrations for both gastric and intestinal exposure in a sample to perform assay. Pre-weighed SDI powder is briefly suspended in media (e.g., by 10 sec vortex mixing with 4.0 mL media) and transferred to a pre-heated (37° C.) volume of 50 mL of 0.1N HCl (aq) (simulated gastric fluid or SGF, pH ˜1.0, without pepsin or bile salts), in a USP Type 2 mini-vessel (100 mL total vessel volume) while stirring (paddles) at 100 rpm. […] Initial Compound A API measurements and SDI dissolution samples were determined utilizing a HPLC method (Table 7). […]
# [2] = molecular target: T1, AHR (Homo sapiens, UniProt P35869); assay: IL-22 secretion by CD3/CD28 activated human T cells (Meso Scale Discovery); format: cell-based; parameters: endogenous in cells; conditions: 48 hours
# T1 sequence (P35869 11-848): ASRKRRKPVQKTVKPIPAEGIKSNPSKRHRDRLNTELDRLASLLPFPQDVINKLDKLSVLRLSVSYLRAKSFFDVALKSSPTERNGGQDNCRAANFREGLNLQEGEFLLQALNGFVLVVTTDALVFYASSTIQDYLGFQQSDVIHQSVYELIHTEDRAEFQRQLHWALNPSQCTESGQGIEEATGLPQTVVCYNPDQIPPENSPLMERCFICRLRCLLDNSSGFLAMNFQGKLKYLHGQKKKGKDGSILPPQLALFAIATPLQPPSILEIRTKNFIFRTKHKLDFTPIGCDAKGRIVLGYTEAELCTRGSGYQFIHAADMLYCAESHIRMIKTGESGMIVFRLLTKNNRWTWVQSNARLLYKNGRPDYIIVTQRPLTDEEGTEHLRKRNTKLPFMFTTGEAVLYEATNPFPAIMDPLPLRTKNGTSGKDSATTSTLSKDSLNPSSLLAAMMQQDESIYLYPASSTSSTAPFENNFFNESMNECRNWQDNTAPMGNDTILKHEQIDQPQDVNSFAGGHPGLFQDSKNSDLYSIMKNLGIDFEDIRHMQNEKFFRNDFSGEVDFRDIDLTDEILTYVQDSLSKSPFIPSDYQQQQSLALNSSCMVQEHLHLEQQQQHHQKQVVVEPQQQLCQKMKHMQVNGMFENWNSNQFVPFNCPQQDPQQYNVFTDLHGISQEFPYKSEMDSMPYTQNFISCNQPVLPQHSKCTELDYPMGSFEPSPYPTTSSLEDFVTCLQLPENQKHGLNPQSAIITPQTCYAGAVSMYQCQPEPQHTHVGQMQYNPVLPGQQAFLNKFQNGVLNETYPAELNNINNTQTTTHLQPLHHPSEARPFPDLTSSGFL
# Description: AHR plays a key role in immune cells and its' inhibition is proposed to reverse immune suppression and activate T cells. The ability of Compound A to inhibit AHR-dependent CYP1A1 expression and cytokine production was assessed in primary human T cells. AHR directly regulates the expression of the immune suppressive cytokine IL-22. Human T cells isolated from healthy donor PBMCs were activated with CD3/CD28 tetramer and incubated for 24 hours with Compound A. Cell pellets were processed for RNA isolation and CYP1A1 analysis by quantitative reverse-transcriptase polymerase chain reaction. For the cytokine analysis assay, CD3/CD28 activated T cells were treated with Compound A, and culture supernatants were collected after 48 hours for analysis of IL-22 levels using Meso Scale Discovery V-plex IL-22 plates. Compound A inhibited AHR-dependent gene expression in activated human T cells by decreasing expression of CYP1A1 in a concentration-dependent manner.
# [3] = tested on: other receptors, transporters, and kinases; assay: Selectivity for AHR over other receptors, transporters, and kinases
# From the text: Compound A is a selective AHR antagonist being developed as an orally administered therapeutic. […] Compound A inhibits CYP1A1 and interleukin (IL)-22 gene expression and leads to an increase in pro-inflammatory cytokines, such as IL-2 and IL-9.
smiles,measurement,setting,value
"CC(C)c1cnn2c(N[C@@H]3CCc4[nH]c5ccccc5c4C3)nc(-c3cncc(F)c3)nc12 [Compound A, (R)—N-(2-(5-fluoropyridin-3-yl)-8-isopropylpyrazolo[1,5-a][1,3,5]triazin-4-yl)-2,3,4,9-tetrahydro-1H-carbazol-3-amine]",AUC35-210 FaSSIF (area under the curve after transfer to FaSSIF from 35 to 210 minutes),[1],2100 min*μgA/mL
same,C210 (drug concentration at 180 minutes after transfer to FaSSIF),[1],4.5 μgA/mL
same,IC50,[2],7 nM
same,"selectivity for AHR over other receptors, transporters, and kinases",[3],highly selective
